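Cultured in 96-well plates, cells were exposed to test compound for 48 hours across five concentrations. At the GI50, growth is halved.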 Calls of active or inactive are those of the source. Cut-off read from the data, not from the text of the source: active = GI50 up to about 1.1 µM and inactive = higher.
What was measured:
Assay in all cases: NCI tumour cell line growth inhibition, 48 h
UACC-62 = tested on: UACC-62
MOLT-4 = tested on: MOLT-4
SN12C = tested on: SN12C
CAKI-1 = tested on: CAKI-1
NCI/ADR-RES = tested on: NCI/ADR-RES
T47D = tested on: T47D
Hs-578T = tested on: Hs-578T
OVCAR-8 = tested on: OVCAR-8
HOP-92 = tested on: HOP-92
BT-549 = tested on: BT-549
HOP-62 = tested on: HOP-62
SK-OV-3 = tested on: SK-OV-3
MDA-N = tested on: MDA-N
HCT-15 = tested on: HCT-15
M14 = tested on: M14
NCI-H226 = tested on: NCI-H226
RPMI-8226 = tested on: RPMI-8226
NCI-H460 = tested on: NCI-H460
OVCAR-5 = tested on: OVCAR-5
SW-620 = tested on: SW-620
RXF 393 = tested on: RXF 393
K562 = tested on: K562
ACHN = tested on: ACHN
HT-29 = tested on: HT-29
SR = tested on: SR
NCI-H23 = tested on: NCI-H23
NCI-H522 = tested on: NCI-H522
PC-3 = tested on: PC-3
UACC-257 = tested on: UACC-257
OVCAR-3 = tested on: OVCAR-3
COLO 205 = tested on: COLO 205
DU-145 = tested on: DU-145
EKVX = tested on: EKVX
SK-MEL-5 = tested on: SK-MEL-5
MCF7 = tested on: MCF7
SF-268 = tested on: SF-268
786-0 = tested on: 786-0
A549 = tested on: A549
SF-539 = tested on: SF-539
MDA-MB-435 = tested on: MDA-MB-435
SK-MEL-2 = tested on: SK-MEL-2
MDA-MB-231 = tested on: MDA-MB-231
IGROV-1 = tested on: IGROV-1
OVCAR-4 = tested on: OVCAR-4
TK-10 = tested on: TK-10
CCRF-CEM = tested on: CCRF-CEM
SF-295 = tested on: SF-295
HCT-116 = tested on: HCT-116
SNB-19 = tested on: SNB-19
UO-31 = tested on: UO-31
KM12 = tested on: KM12
U-251 = tested on: U-251
HL-60 = tested on: HL-60
LOX IMVI = tested on: LOX IMVI
HCC 2998 = tested on: HCC 2998
Malme-3M = tested on: Malme-3M
SNB-75 = tested on: SNB-75
A498 = tested on: A498
SK-MEL-28 = tested on: SK-MEL-28

NC(=O)[N+](=CC(=S)Nc1ccccc1Cl)C(N)=O
GI50 (UACC-62): > 100 µM (inactive) | GI50 (MOLT-4): > 100 µM (inactive) | GI50 (SN12C): > 100 µM (inactive) | GI50 (CAKI-1): > 100 µM (inactive) | GI50 (NCI/ADR-RES): > 100 µM (inactive) | GI50 (T47D): > 100 µM (inactive) | GI50 (Hs-578T): > 100 µM (inactive) | GI50 (OVCAR-8): > 100 µM (inactive) | GI50 (HOP-92): > 100 µM (inactive) | GI50 (BT-549): 86.9 µM (inactive) | GI50 (HOP-62): > 100 µM (inactive) | GI50 (SK-OV-3): > 100 µM (inactive) | GI50 (MDA-N): > 100 µM (inactive) | GI50 (HCT-15): > 100 µM | GI50 (M14): > 100 µM (inactive) | GI50 (NCI-H226): > 100 µM (inactive) | GI50 (RPMI-8226): > 100 µM (inactive) | GI50 (NCI-H460): > 100 µM (inactive) | GI50 (OVCAR-5): > 100 µM (inactive) | GI50 (SW-620): > 100 µM (inactive) | GI50 (RXF 393): > 100 µM (inactive) | GI50 (K562): > 100 µM (inactive) | GI50 (ACHN): > 100 µM (inactive) | GI50 (HT-29): > 100 µM (inactive) | GI50 (SR): 28.7 µM (inactive) | GI50 (NCI-H23): > 100 µM (inactive) | GI50 (NCI-H522): > 100 µM (inactive) | GI50 (PC-3): > 100 µM (inactive) | GI50 (UACC-257): > 100 µM (inactive) | GI50 (OVCAR-3): > 100 µM (inactive) | GI50 (COLO 205): > 100 µM (inactive) | GI50 (DU-145): > 100 µM (inactive) | GI50 (EKVX): > 100 µM (inactive) | GI50 (SK-MEL-5): > 100 µM (inactive) | GI50 (MCF7): > 100 µM (inactive) | GI50 (SF-268): > 100 µM (inactive) | GI50 (786-0): > 100 µM (inactive) | GI50 (A549): > 100 µM (inactive) | GI50 (SF-539): > 100 µM (inactive) | GI50 (MDA-MB-435): > 100 µM (inactive) | GI50 (SK-MEL-2): > 100 µM (inactive) | GI50 (MDA-MB-231): > 100 µM (inactive) | GI50 (IGROV-1): > 100 µM (inactive) | GI50 (OVCAR-4): > 100 µM (inactive) | GI50 (TK-10): > 100 µM (inactive) | GI50 (CCRF-CEM): > 100 µM (inactive) | GI50 (SF-295): > 100 µM (inactive) | GI50 (HCT-116): > 100 µM (inactive) | GI50 (SNB-19): 71.4 µM (inactive) | GI50 (UO-31): > 100 µM (inactive) | GI50 (KM12): > 100 µM (inactive) | GI50 (U-251): > 100 µM (inactive) | GI50 (HL-60): > 100 µM (inactive) | GI50 (LOX IMVI): > 100 µM (inactive) | GI50 (HCC 2998): > 100 µM (inactive)

O=C(O)C1=C/C(=C(/c2ccccc2)c2cc(C(=O)O)c(O)c3ccccc23)c2ccccc2C1=O
GI50 (Malme-3M): > 100 µM (inactive) | GI50 (UACC-62): > 100 µM (inactive) | GI50 (MOLT-4): > 100 µM (inactive) | GI50 (SN12C): > 100 µM (inactive) | GI50 (CAKI-1): > 100 µM (inactive) | GI50 (NCI/ADR-RES): > 100 µM (inactive) | GI50 (T47D): > 100 µM (inactive) | GI50 (Hs-578T): > 100 µM (inactive) | GI50 (OVCAR-8): > 100 µM (inactive) | GI50 (SNB-75): > 100 µM (inactive) | GI50 (HOP-92): > 100 µM (inactive) | GI50 (BT-549): > 100 µM (inactive) | GI50 (HOP-62): > 100 µM (inactive) | GI50 (SK-OV-3): > 100 µM (inactive) | GI50 (MDA-N): > 100 µM (inactive) | GI50 (HCT-15): > 100 µM | GI50 (M14): > 100 µM (inactive) | GI50 (NCI-H226): > 100 µM (inactive) | GI50 (RPMI-8226): > 100 µM (inactive) | GI50 (NCI-H460): > 100 µM (inactive) | GI50 (OVCAR-5): > 100 µM (inactive) | GI50 (SW-620): > 100 µM (inactive) | GI50 (RXF 393): > 100 µM (inactive) | GI50 (K562): > 100 µM (inactive) | GI50 (ACHN): > 100 µM (inactive) | GI50 (HT-29): > 100 µM (inactive) | GI50 (SR): > 100 µM (inactive) | GI50 (NCI-H23): > 100 µM (inactive) | GI50 (NCI-H522): > 100 µM (inactive) | GI50 (PC-3): > 100 µM (inactive) | GI50 (UACC-257): > 100 µM (inactive) | GI50 (A498): > 100 µM (inactive) | GI50 (OVCAR-3): > 100 µM (inactive) | GI50 (COLO 205): > 100 µM (inactive) | GI50 (DU-145): > 100 µM (inactive) | GI50 (EKVX): > 100 µM (inactive) | GI50 (SK-MEL-5): > 100 µM (inactive) | GI50 (MCF7): > 100 µM (inactive) | GI50 (SF-268): > 100 µM (inactive) | GI50 (786-0): > 100 µM (inactive) | GI50 (A549): > 100 µM (inactive) | GI50 (SF-539): > 100 µM (inactive) | GI50 (MDA-MB-435): > 100 µM (inactive) | GI50 (SK-MEL-2): > 100 µM (inactive) | GI50 (MDA-MB-231): > 100 µM (inactive) | GI50 (IGROV-1): > 100 µM (inactive) | GI50 (OVCAR-4): > 100 µM (inactive) | GI50 (TK-10): > 100 µM (inactive) | GI50 (CCRF-CEM): < 0.01 µM (active) | GI50 (SF-295): > 100 µM (inactive) | GI50 (HCT-116): > 100 µM (inactive) | GI50 (SNB-19): > 100 µM (inactive) | GI50 (UO-31): > 100 µM (inactive) | GI50 (KM12): > 100 µM (inactive) | GI50 (U-251): > 100 µM (inactive) | GI50 (HL-60): < 0.01 µM (active) | GI50 (SK-MEL-28): > 100 µM (inactive) | GI50 (HCC 2998): > 100 µM (inactive)

— ChEMBL document CHEMBL1201862, “PubChem BioAssay data set” (2004)
